Consider two molecules from patent US10828305B2 (SHANGHAI PHARMACEUTICALS HOLDING CO., LTD., priority 2016, dated 2020).

For one data set, the target named is T1, CYP1A2 (Homo sapiens, UniProt P05177).
T1 construct: from tissue; host or cells: human liver microsomes
T1 sequence (P05177 1-516): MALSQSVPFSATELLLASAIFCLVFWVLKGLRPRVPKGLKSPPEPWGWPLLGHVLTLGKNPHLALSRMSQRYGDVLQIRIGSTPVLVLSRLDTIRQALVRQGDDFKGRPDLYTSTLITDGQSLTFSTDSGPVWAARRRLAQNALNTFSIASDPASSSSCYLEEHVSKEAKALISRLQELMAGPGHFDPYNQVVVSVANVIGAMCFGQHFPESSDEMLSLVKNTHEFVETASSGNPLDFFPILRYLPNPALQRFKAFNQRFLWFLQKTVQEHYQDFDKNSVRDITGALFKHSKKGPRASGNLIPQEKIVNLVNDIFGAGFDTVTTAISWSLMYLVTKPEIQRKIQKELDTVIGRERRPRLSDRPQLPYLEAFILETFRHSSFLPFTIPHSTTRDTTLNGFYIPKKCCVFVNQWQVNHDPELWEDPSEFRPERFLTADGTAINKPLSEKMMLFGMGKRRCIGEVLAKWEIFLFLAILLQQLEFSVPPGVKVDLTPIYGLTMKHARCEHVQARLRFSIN
Briefly: Direct inhibition of CYP1A2, human liver microsome. Format: in vitro ADME. To be noted: probe phenacetin, read-out: IC50 1A2 (Phenacetin). The method, then: (§1) Research on Direct Inhibition of CYP3A4, CYP2D6, CYP2C9, CYP2C19, CYP1A2
(§2) 100 μL human liver microsome (with final concentration of 0.2 mg/mL) was used for direct inhibition under warm incubation, the positive control system contained NADPH (with final concentration of 1 mmol/L), a mixture of positive inhibitors (ketoconazole 0.01 to 10 μmol/L, quinidine 0.01 to 10 μmol/L, sulfaphenazole 0.1 to 100 μmol/L, tranylcypromine 1 to 1000 μmot/L, α-naphthoflavone 0.01 to 10 μmol/L), and a substrate mixture (with final concentration of midazolam 10 μmol/L, testosterone 100 μmol/L, dextromethorphan 10 μmol/L, diclofenac 20 μmol/L, S-mephenytoin 50 μmol/L, phenacetin 100 μmol/L), and the reaction was terminated after incubation for 20 min. The positive inhibitor was replaced with 0.1 to 100 μmol/L test compound in the test compound group. The reaction was terminated with acetonitrile containing 0.11 μg/mL internal standard tinidazole (1:3), vortexed for 10 min, centrifuged at 6000×g for 10 min, 50 μL supernatant was taken and put into a 96-well plate for injection.
(§3) In this experiment, IC50 of inhibition of the compound on the enzyme was calculated by measuring relative production of the probe metabolite. The activity of CYP3A4 was simultaneously characterized by two probes of midazolam and testosterone.

A further data set addresses T2, CYP2B6 (Homo sapiens, UniProt P20813).
T2 construct: from tissue; host or cells: human liver microsomes
T2 sequence (P20813 1-491): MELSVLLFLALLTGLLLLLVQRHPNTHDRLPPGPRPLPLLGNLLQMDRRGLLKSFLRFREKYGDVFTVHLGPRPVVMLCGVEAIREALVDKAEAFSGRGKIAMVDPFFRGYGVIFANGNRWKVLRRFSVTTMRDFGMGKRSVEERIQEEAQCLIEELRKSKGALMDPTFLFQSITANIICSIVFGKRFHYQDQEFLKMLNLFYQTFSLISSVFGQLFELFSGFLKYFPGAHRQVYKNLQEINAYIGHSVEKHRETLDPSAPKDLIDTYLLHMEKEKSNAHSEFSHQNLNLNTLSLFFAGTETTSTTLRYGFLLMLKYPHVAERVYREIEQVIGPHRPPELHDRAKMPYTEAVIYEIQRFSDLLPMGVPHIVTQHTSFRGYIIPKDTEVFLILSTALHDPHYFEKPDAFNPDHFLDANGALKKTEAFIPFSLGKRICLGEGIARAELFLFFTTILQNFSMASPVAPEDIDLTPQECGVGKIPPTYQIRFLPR
The data set is described as follows: Direct inhibition of CYP2B6, human liver microsome. The data set is classed as in vitro ADME. To be noted: probe bupropion, read-out: IC50 2B6 (Bupropion). As to the method: Research on Direct Inhibition of CYP2B6 and CYP2C8
100 μL human liver microsome (with final concentration of 0.2 mg/mL) was used for direct inhibition under warm incubation. The positive control system contained NADPH (with final concentration of 1 mmol/L), a mixture of positive inhibitors (ketoconazole 0.05 to 50 μmol/L, montelukast sodium 0.001 to 1 μmol/L), and a substrate mixture (with final concentration of amfepramone 50 μmol/L and paclitaxel 5 μmol/L), and the reaction was terminated after incubation for 20 min. The positive inhibitor was replaced with 0.1 to 100 μmol/L test compound in the test compound group. The reaction was terminated with acetonitrile containing […] internal standard tinidazole (1:3), vortexed for 10 min, centrifuged at 6000×g for 10 min, and 50 μL supernatant was taken and put into a 96-well plate for injection.
as §3
(Liver microsomes are vesicles of endoplasmic reticulum, rich in cytochrome P450 enzymes.)

Another data set addresses T3, CYP3A4 (Homo sapiens, UniProt P08684).
T3 construct: from tissue; host or cells: human liver microsomes
The data set is described as follows: Direct inhibition of CYP3A4, human liver microsome. Format: in vitro ADME. The method, then:
as §1, §2, §3

The target of the next data set is T4, CYP2C19 (Homo sapiens, UniProt P33261).
T4 construct: from tissue; host or cells: human liver microsomes
T4 sequence (P33261 whole entry): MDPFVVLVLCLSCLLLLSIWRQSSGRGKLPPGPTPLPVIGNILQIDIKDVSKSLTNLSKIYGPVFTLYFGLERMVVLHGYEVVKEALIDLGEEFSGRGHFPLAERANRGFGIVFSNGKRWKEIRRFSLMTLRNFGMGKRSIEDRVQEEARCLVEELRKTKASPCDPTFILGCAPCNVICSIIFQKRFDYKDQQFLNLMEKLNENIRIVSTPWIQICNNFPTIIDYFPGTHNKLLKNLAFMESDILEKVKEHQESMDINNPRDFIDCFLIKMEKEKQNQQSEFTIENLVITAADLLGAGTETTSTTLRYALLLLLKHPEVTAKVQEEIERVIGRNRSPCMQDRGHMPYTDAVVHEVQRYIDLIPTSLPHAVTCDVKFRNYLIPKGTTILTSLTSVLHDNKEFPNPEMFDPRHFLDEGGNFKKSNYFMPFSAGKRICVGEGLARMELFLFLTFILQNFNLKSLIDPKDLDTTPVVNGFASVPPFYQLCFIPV
Briefly: Direct inhibition of CYP2C19, human liver microsome. The data set is classed as in vitro ADME. As to conditions: probe mephenytoin, read-out: IC50 2C19 (Mephenytoin). The method, then: as §1, §2, §3

Data set [1] in a line: In vivo pharmacokinetics study in mice. As to conditions: male, ICR, mouse, plasma, po, iv 3 mg/kg, intragastric 10 mg/kg, read-out: Absolute bioavailability F. As to the method:
In Vivo Pharmacokinetics Study in Rats and Mice
24 male ICR mices, with weight of 18 to 22 g. The mice were fasted for 12 to 16 hours before the experiment, without restricting drinking water. 24 mice were divided into 2 groups, 12 mice for each group. The first group was intravenously administrated with test compound (10 mL/kg, 0.3 mg/mL) at a dose of 3 mg/kg, 0.4 mL blood sample was taken from venous plexus of the fundus of the eye into a pre-heparinized centrifuge tube (sodium heparin solution 10 μL/tube) before administration and 2, 5, 15, 30, 60, 90, 120, 240, 360, 480, 720, 1440 min after administration, respectively. The second group was dosed with compound (20 mL/kg, 0.5 mg/mL) by intragastric administration at a dose of 10 mg/kg, 0.4 mL blood sample was taken from venous plexus of the fundus of the eye into a pre-heparinized centrifuge tube (sodium heparin solution 10 μL/tube) before administration and 5, 15, 30, 60, 90, 120, 240, 360, 480, 720, and 1440 min after administration, respectively. 2 to 3 time points were taken for each mouse. […]
Taking 50 μL plasma sample of rat or mouse, adding […] acetonitrile containing internal standard (propranolol, 2.5 ng/ml) to precipitate protein. Vortexing for 10 min, centrifuging at 6000 g for 10 min, the supernatant was taken and diluted with mobile phase in a 96-well plate, the drug concentration in plasma was measured by UPLC/MS-MS. […]

Where [2] appears, read: probe midazolam, read-out: IC50 3A4 (Midazolam).
The mark [3] stands for this setting: probe testosterone, read-out: IC50 3A4 (testosterone).

Where two headings read alike, the source gives them in different places.

T3 sequence (P08684 whole entry): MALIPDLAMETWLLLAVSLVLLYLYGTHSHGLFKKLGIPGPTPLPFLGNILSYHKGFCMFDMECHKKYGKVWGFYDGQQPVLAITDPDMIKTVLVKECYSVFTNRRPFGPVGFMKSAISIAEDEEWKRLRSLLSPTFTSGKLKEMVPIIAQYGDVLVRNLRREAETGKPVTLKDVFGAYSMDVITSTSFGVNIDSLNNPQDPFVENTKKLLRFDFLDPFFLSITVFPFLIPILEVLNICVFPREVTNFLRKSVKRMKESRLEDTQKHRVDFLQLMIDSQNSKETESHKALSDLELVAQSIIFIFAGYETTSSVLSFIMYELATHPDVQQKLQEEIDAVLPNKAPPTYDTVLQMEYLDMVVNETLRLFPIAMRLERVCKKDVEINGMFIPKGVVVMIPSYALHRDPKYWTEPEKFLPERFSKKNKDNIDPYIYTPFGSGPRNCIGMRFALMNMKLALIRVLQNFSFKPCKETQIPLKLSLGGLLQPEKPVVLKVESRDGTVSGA

Take `Cc1cc(Nc2ncnc3ccc(NC4=NC(C)(C)CO4)cc23)ccc1Oc1ccn2ncnc2c1` [ARRY-380, reference compound]: the IC50 at CYP1A2 is 94 µM; on CYP2B6, > 100 µM; at CYP3A4 (setting [2]), 11 µM; at CYP3A4 (setting [3]), 11 µM; on CYP2C19, 35 µM. Besides, the bioavailability in data set [1] was determined as 61%.

`Cc1cc(Nc2ncnc3ccc(NC4=NC(C)(C)CO4)cc23)ccc1Oc1cc2nncn2cn1` [Embodiment 4, N^4-(4-([1,2,4]triazolo[4,3-c]pyrimidin-7-yloxy)-3-methylphenyl)-N^6-(4,4-dimethyl-4,5-dihydrooxazol-2-yl)quinazoline-4,6-diamine]: the IC50 was 34 µM on CYP1A2; > 100 µM on CYP2B6; 25 µM on CYP3A4 (setting [2]); 21 µM on CYP3A4 (setting [3]); 53 µM on CYP2C19. In addition, the bioavailability in data set [1] was 96.2%.

What is called IC50 is the concentration at which inhibition is half-maximal. For orientation: bioavailability means the share of a dose that reaches the circulation, judged against a reference dose that is usually intravenous.
